PubChem BioAssay (NCI)
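96-well plates; 48 h exposure; 5 concentrations. Endpoints by linear interpolation between flanking doses. Not reached: highest tested concentration assigned. TGI denotes the concentration required for complete inhibition of growth.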

Legend:
Test in all cases: NCI anticancer screen, dose series, 48 h
SF-539 CNS = test system: SF-539 CNS
NCI-H522 lung = test system: NCI-H522 lung
UACC-257 melanoma = test system: UACC-257 melanoma
MALME-3M melanoma = test system: MALME-3M melanoma
SF-268 CNS = test system: SF-268 CNS
CAKI-1 renal = test system: CAKI-1 renal
NCI-H23 lung = test system: NCI-H23 lung
HOP-92 NSCLC = test system: HOP-92 NSCLC
OVCAR-8 ovarian = test system: OVCAR-8 ovarian
A549 NSCLC = test system: A549 NSCLC
A498 renal = test system: A498 renal
NCI/ADR-RES ovarian = test system: NCI/ADR-RES ovarian
COLO 205 colon = test system: COLO 205 colon
SK-MEL-28 melanoma = test system: SK-MEL-28 melanoma
SNB-75 CNS = test system: SNB-75 CNS
CCRF-CEM leukemia = test system: CCRF-CEM leukemia
RXF 393 renal = test system: RXF 393 renal
MCF7 breast = test system: MCF7 breast
OVCAR-3 ovarian = test system: OVCAR-3 ovarian

CCSc1cc2c(cc1O)CC[C@@H]1[C@@H]2CC[C@]2(C)[C@@H](O)CC[C@@H]12
TGI (SF-539 CNS): 34.3 µM
TGI (NCI-H522 lung): 19.5 µM
TGI (UACC-257 melanoma): 30.2 µM
TGI (MALME-3M melanoma): 23.8 µM
TGI (SF-268 CNS): 55 µM
TGI (CAKI-1 renal): 26.4 µM
TGI (NCI-H23 lung): 44.3 µM
TGI (HOP-92 NSCLC): 24.3 µM
TGI (OVCAR-8 ovarian): 38.5 µM
TGI (A549 NSCLC): 15.5 µM
TGI (A498 renal): 28.9 µM
TGI (NCI/ADR-RES ovarian): 26.9 µM
TGI (COLO 205 colon): 32.3 µM
TGI (SK-MEL-28 melanoma): 28.9 µM
TGI (SNB-75 CNS): 29.6 µM
TGI (CCRF-CEM leukemia): 30.8 µM
TGI (RXF 393 renal): 39.2 µM
TGI (MCF7 breast): 27.5 µM

O=C(SC1=NCCN1)c1cccc2ccccc12
TGI (SF-539 CNS): > 100 µM
TGI (NCI-H522 lung): 74.9 µM
TGI (UACC-257 melanoma): 95.9 µM
TGI (MALME-3M melanoma): > 100 µM
TGI (SF-268 CNS): > 100 µM
TGI (CAKI-1 renal): > 100 µM
TGI (NCI-H23 lung): > 100 µM
TGI (HOP-92 NSCLC): > 100 µM
TGI (OVCAR-8 ovarian): > 100 µM
TGI (OVCAR-3 ovarian): > 100 µM
TGI (A549 NSCLC): > 100 µM
TGI (A498 renal): > 100 µM
TGI (NCI/ADR-RES ovarian): > 100 µM
TGI (COLO 205 colon): > 100 µM
TGI (SK-MEL-28 melanoma): > 100 µM
TGI (SNB-75 CNS): 96.8 µM
TGI (CCRF-CEM leukemia): 70.1 µM
TGI (RXF 393 renal): > 100 µM
TGI (MCF7 breast): > 100 µM

O=C1/C(=C/c2ccco2)N=C2Sc3c(nc[nH]c3=O)N12
TGI (SF-539 CNS): > 100 µM
TGI (NCI-H522 lung): > 100 µM
TGI (UACC-257 melanoma): > 100 µM
TGI (MALME-3M melanoma): > 100 µM
TGI (SF-268 CNS): > 100 µM
TGI (CAKI-1 renal): > 100 µM
TGI (NCI-H23 lung): > 100 µM
TGI (HOP-92 NSCLC): > 100 µM
TGI (OVCAR-8 ovarian): > 100 µM
TGI (OVCAR-3 ovarian): > 100 µM
TGI (A549 NSCLC): > 100 µM
TGI (A498 renal): > 100 µM
TGI (NCI/ADR-RES ovarian): > 100 µM
TGI (COLO 205 colon): > 100 µM
TGI (SK-MEL-28 melanoma): > 100 µM
TGI (SNB-75 CNS): > 100 µM
TGI (CCRF-CEM leukemia): > 100 µM
TGI (RXF 393 renal): > 100 µM
TGI (MCF7 breast): > 100 µM

O=C(OCc1ccc([N+](=O)[O-])cc1)N1c2ccccc2[C@@]23O[C@]24CCC[C@H]3C#C/C=C\C#C[C@H]14
TGI (SF-539 CNS): > 100 µM
TGI (NCI-H522 lung): > 100 µM
TGI (UACC-257 melanoma): > 100 µM
TGI (MALME-3M melanoma): > 100 µM
TGI (SF-268 CNS): > 100 µM
TGI (CAKI-1 renal): > 100 µM
TGI (NCI-H23 lung): > 100 µM
TGI (HOP-92 NSCLC): > 100 µM
TGI (OVCAR-8 ovarian): > 100 µM
TGI (OVCAR-3 ovarian): > 100 µM
TGI (A549 NSCLC): > 100 µM
TGI (A498 renal): > 100 µM
TGI (NCI/ADR-RES ovarian): > 100 µM
TGI (COLO 205 colon): > 100 µM
TGI (SK-MEL-28 melanoma): > 100 µM
TGI (CCRF-CEM leukemia): > 100 µM
TGI (RXF 393 renal): > 100 µM
TGI (MCF7 breast): > 100 µM

CN(C)CCCNC(=O)CCNC(=O)c1cc(NC(=O)c2cc(NC(=O)c3cc(NC(=O)c4nccn4C)cn3C)cn2C)cn1C
TGI (SF-539 CNS): > 100 µM
TGI (NCI-H522 lung): 97 µM
TGI (UACC-257 melanoma): > 100 µM
TGI (MALME-3M melanoma): > 100 µM
TGI (SF-268 CNS): > 100 µM
TGI (CAKI-1 renal): > 100 µM
TGI (NCI-H23 lung): > 100 µM
TGI (HOP-92 NSCLC): > 100 µM
TGI (OVCAR-8 ovarian): > 100 µM
TGI (OVCAR-3 ovarian): > 100 µM
TGI (A549 NSCLC): > 100 µM
TGI (A498 renal): > 100 µM
TGI (NCI/ADR-RES ovarian): > 100 µM
TGI (COLO 205 colon): > 100 µM
TGI (SK-MEL-28 melanoma): > 100 µM
TGI (SNB-75 CNS): > 100 µM
TGI (CCRF-CEM leukemia): > 100 µM
TGI (RXF 393 renal): > 100 µM
TGI (MCF7 breast): > 100 µM
